ChEMBL document CHEMBL2390851, “Synthesis and preliminary in vitro biological evaluation of 7α-testosterone-chlorambucil hybrid designed for the treatment of prostate cancer” (Eur J Med Chem, 2013)
The source made the active and inactive calls. The rule behind the calls is not given here.

Tests used:
Assay type in all cases: functional, cell-based
PC-3 [1] = test: Cytotoxicity against androgen receptor deficient human PC3 cells after 72 hrs by MTT assay; details: PC-3, 72 h
LNCaP = test: Cytotoxicity against human LNCAP cells expressing androgen receptor after 72 hrs by MTT assay
PC-3 [2] = test: Cytotoxicity against androgen receptor deficient human PC3 cells at 160 uM after 72 hrs by MTT assay

| Structure (SMILES) | IC50 (PC-3 [1]) | IC50 (LNCaP) | Activity (PC-3 [2]) |
| --- | --- | --- | --- |
| O=C(O)CCCc1ccc(N(CCCl)CCCl)cc1 [CHLORAMBUCIL] | 131 µM | 124 µM |  |
| C[C@]12CC[C@H]3[C@@H]([C@H](C/C=C/COC(=O)CCCc4ccc(N(CCCl)CCCl)cc4)CC4=CC(=O)CC[C@@]43C)[C@@H]1CC[C@@H]2O (mixture of isomers) |  | 101 µM | inactive |
